Data published in article PMC6892925, “Development of Novel Silyl Cyanocinnamic Acid Derivatives as Metabolic Plasticity Inhibitors for Cancer Treatment” (Scientific Reports, 2019).

Columns and labels:
MCT1 = target: T1, MCT1 (Rattus norvegicus, UniProt P53987); experiment: MCT1 inhibition assay via L-[14C]-lactate uptake in RBE4 cells; format: cell-based; conditions: L-[14C]-lactate uptake, MCT1 expressing RBE4 cell line; average ± SEM of three separate experiments; read-out: MCT1 IC50
T1 construct: using an L-[^14C]-lactate study on the MCT1 expressing RBE4 cell line; endogenous in cells; host or cells: RBE4 (rat brain endothelial 4) cells, a gift from F. Roux
T1 sequence (P53987 1-494): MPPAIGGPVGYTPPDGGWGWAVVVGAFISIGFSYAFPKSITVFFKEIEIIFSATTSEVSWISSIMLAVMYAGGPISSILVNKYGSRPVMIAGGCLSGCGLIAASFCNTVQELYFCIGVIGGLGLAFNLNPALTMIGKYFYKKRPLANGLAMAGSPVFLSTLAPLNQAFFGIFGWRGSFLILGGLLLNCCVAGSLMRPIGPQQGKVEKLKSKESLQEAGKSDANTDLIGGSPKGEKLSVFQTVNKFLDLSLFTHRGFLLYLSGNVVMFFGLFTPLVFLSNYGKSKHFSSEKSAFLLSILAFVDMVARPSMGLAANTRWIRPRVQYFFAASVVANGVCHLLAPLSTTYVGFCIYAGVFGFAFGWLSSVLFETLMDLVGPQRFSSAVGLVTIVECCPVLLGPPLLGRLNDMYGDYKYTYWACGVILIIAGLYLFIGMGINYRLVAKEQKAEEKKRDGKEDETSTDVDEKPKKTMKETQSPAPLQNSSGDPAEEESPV

[1] = tested on: MCT4 expressing MDA-MB-231 cell line; experiment: Seahorse XFe96 glycolysis stress test (ECAR); format: cell-based, human; conditions: 30 µM, MDA-MB-231, vs DMSO control
Procedure: (§1) Candidate compounds 2a and 2b were evaluated for their effect on glycolysis, glycolytic capacity and glycolytic reserve. This assay measures extracellular acidification rate (ECAR) which is directly correlated with the rate of glycolysis. The ECAR for both cell lines in the presence of the test compounds can be seen above (Fig. 4B,C). In this assay, cells were initially starved of glucose to reduce their ECAR. Upon addition of glucose, a rise in ECAR was observed proportional to the rate of glycolysis in each cell line. An increase in basal levels of glycolysis in cells treated with test compounds compared to the controls represents a shift toward dependency on glycolysis for ATP production. […] Glycolytic capacity is the maximum rate of glycolysis the cell can attain in the absence of OxPhos as an ATP source.
(§2) 20,000 cells/well were plated in 96-well Seahorse plates (Agilent, part no. 101085-004) and incubated 16–24 hours at 37 °C at 5% CO2. Flux pack sensors (Agilent, part no. 102416-100) were hydrated with XF calibrant solution (Agilent, part no. 100840-000) overnight at 37 °C in a non-CO2 incubator. The serum free assay media was prepared from Seahorse base medium (Agilent, part no. 102353-100) enriched with glutamine (1 mM) and sodium pyruvate (1 mM). The pH of the media was adjusted to 7.4. For glycolysis stress test the serum free assay media was used. For the mitochondrial stress test glucose (10 mM) was added to make an enriched serum free assay media. For both stress tests an 8X stock concentration of test compounds in their respective media was prepared for microplate injections in port A. Stock solutions of glucose (90 mM), oligomycin (10 μM), and 2-deoxyglucose (Chem Impex, 550 mM) were prepared such that their final working concentrations are 10 mM, 1 μM and 50 mM, respectively, for glycolysis stress test. For mitochondrial stress test, stock solutions of oligomycin (9 µM), FCCP (2.5–10 µM, cell line dependent), rotenone + antimycin A (5.5 µM) were prepared such that their final concentrations were 1 µM, 0.25–1 µM, and 0.5 µM, respectively in the enriched test media. Under glycolytic stress test, the cells were treated with test compounds, followed by the addition of glucose, oligomycin and 2-deoxyglucose at 14.29, 33.8, 53.35, 72.87 minutes, respectively. Under mitochondrial stress test, cells were treated with test compounds, followed by the addition of oligomycin, FCCP, and rotenone + antimycin A, at 14.29, 33.8, 53.35, 72.87 minutes, respectively. Extracellular acidification rates (ECAR) and oxygen consumption rates (OCR) were recorded in real-time for glycolysis and mitochondrial stress tests, respectively, using a Seahorse XFe96® analyzer (Agilent). The parameters related to glycolytic and mitochondrial functions were calculated utilizing the Wave 2.4.0 software (Agilent). ATP rate assay experiment was performed using manufactures (Agilent) protocol, and respective mitochondrial and glycolytic ATP rates were normalized to protein (BCA assay) and calculated using Wave 2.4.0 software.

[2] = tested on: MCT1 expressing WiDr cell line; experiment: Seahorse XFe96 glycolysis stress test (ECAR); format: cell-based, human; conditions: 30 µM, vs DMSO control
Procedure: as §1, §2

[3] = tested on: MCT1 expressing WiDr tumor xenograft; experiment: In vivo tumor growth inhibition study, WiDr tumor xenograft; design: species or system mouse; conditions: 25 mg/kg i.p., 16 days; for tumor growth suppression: vs control group
Procedure: Based on in vitro cell proliferation inhibition, MCT1 inhibition, and effects on glycolysis/mitochondrial function, we advanced candidate compounds 2a and 2b for translational in vivo safety and efficacy studies. […] Next, an MCT1 expressing WiDr tumor xenograft model was chosen to evaluate the efficacy of 2a and 2b. After tumors were inoculated, they were allowed to reach ~150 mm^3 volume, and mice were randomly divided into three groups. Group-1 was administered 25 mg/kg (i.p.) of compound 2a, group-2 was administered with 25 mg/kg (i.p.) of 2b, and group-3 was designated as control group and given an injection of vehicle. Treatment was continued for 16 days, and tumor volumes were recorded. […] During the two-week treatment period, there was no significant loss of body weights in mice between treated and control groups. […] At the end of the study, all the tumors were resected, and the tumor mass was weighed (Fig. 6D).
WiDr cells (5 × 10^6 cells) were suspended in 1:1 mixture of matrigel (Corning, cat. no. 356237) and PBS and injected subcutaneously into the right flank of female athymic nude mice (Charles River). The mice were randomly assigned into 3 groups (n = 6 mice per group). Vertical and horizontal diameters of tumors were measured every two- or three-days using calipers. The tumor volumes were calculated assuming a perfect sphere using the formula V = ab^2/2 where ‘a’ is the longer diameter of the tumor and ‘b’ is the shorter diameter of the tumor. Treatment was initiated when the tumor volume reached 100 mm^3. The study was terminated after sixteen days and tumors were then resected and weighed. All procedures performed using this method were approved by the University of Minnesota Institutional Animal Care and Use Committee (IACUC, protocol no. 1612-34444A) and are in accordance with all guidelines and regulations.

CC(C)(C)[Si](Oc1ccc(/C=C(\C#N)C(=O)O)cc1)(c1ccccc1)c1ccccc1 [2a]
IC50 (MCT1): 0.408 ± 0.005 µM | basal glycolysis (ECAR) [1]: significantly increased | glycolytic capacity (ECAR) [1]: significantly reduced | glycolytic reserve (ECAR) [1]: significant decrease | basal glycolysis (ECAR) [2]: significantly increased | glycolytic reserve (ECAR) [2]: significant decrease | tumor volume vs control group [3]: significant suppression in tumor volume | tumor growth suppression [3]: 36%

CC(C)(C)[Si](OCCOc1ccc(/C=C(\C#N)C(=O)O)cc1)(c1ccccc1)c1ccccc1 [2b]
IC50 (MCT1): 0.097 ± 0.007 µM | basal glycolysis (ECAR) [1]: significantly increased | glycolytic capacity (ECAR) [1]: significantly reduced | glycolytic reserve (ECAR) [1]: significant decrease | basal glycolysis (ECAR) [2]: significantly increased | glycolytic reserve (ECAR) [2]: significant decrease | tumor growth suppression [3]: 28%
